{"source": "patent US20240025862A1", "about": "“SUBSTITUTED N-PHENYLURACILS AND SALTS THEREOF, AND USE THEREOF AS HERBICIDAL ACTIVE SUBSTANCES” (Bayer Aktiengesellschaft, priority 2020, published 2024)", "assay_type_in_all_cases": "in vivo", "key": {"[1]": {"system": "Polygonum convolvulus (POLCO)", "test": "Post-emergence herbicidal action, greenhouse pot test", "in_short": "(§1)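 Greenhouse-grown weeds in sandy loam were sprayed post-emergence at the one-leaf stage, 2–3 weeks after sowing. Compounds were formulated as WP or EC in water with 0.5% additive at 600 l/ha, at rates of 20 g/ha or less. Visual rating after about 3 weeks used a scale from 0% (like untreated control) to 100% (plants dead).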"}, "Viola tricolor (VIOTR)": {"system": "Viola tricolor (VIOTR)", "test": "Post-emergence herbicidal action, greenhouse pot test", "in_short": "as §1"}, "[2]": {"system": "Amaranthus retroflexus (AMARE)", "test": "Post-emergence herbicidal action, greenhouse pot test", "conditions": "rated visually after about 3 weeks vs untreated controls, 100% = plants have died", "in_short": "as §1"}, "[3]": {"system": "Abutilon theophrasti (ABUTH)", "test": "Post-emergence herbicidal action, greenhouse pot test", "conditions": "rated visually after about 3 weeks vs untreated controls, 100% = plants have died", "in_short": "as §1"}, "Veronica persica (VERPE)": {"system": "Veronica persica (VERPE)", "test": "Post-emergence herbicidal action, greenhouse pot test", "in_short": "as §1"}, "Hordeum murinum (HORMU)": {"system": "Hordeum murinum (HORMU)", "test": "Post-emergence herbicidal action, greenhouse pot test", "conditions": "rated visually after about 3 weeks vs untreated controls, 100% = plants have died", "in_short": "as §1"}, "Stellaria media (STEME)": {"system": "Stellaria media (STEME)", "test": "Post-emergence herbicidal action, greenhouse pot test", "in_short": "as §1"}, "[4]": {"system": "Pharbitis purpurea (PHBPU)", "test": "Post-emergence herbicidal action, greenhouse pot test", "in_short": "as §1"}, "Avena fatua (AVEFA)": {"system": "Avena fatua (AVEFA)", "test": "Post-emergence herbicidal action, greenhouse pot test", "conditions": "20 g/ha, rated visually after about 3 weeks vs untreated controls, 100% = plants have died", "in_short": "as §1"}, "Zea mays (ZEAMX)": {"system": "Zea mays (ZEAMX)", "test": "Post-emergence crop plant compatibility, greenhouse pot test", "conditions": "1.25 g/ha, vs untreated controls", "in_short": "(§2)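 Seeds are sown in sandy loam and grown under controlled greenhouse conditions. At the one-leaf stage (2–3 weeks), foliage is sprayed with the formulated compound in water containing 0.5% additive at 600 l/ha. About 3 weeks later, injury is rated visually in % against untreated plants.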"}, "[5]": {"system": "Triticum aestivum (TRZAS)", "test": "Post-emergence crop plant compatibility, greenhouse pot test", "conditions": "vs untreated controls", "in_short": "as §2"}, "Brassica napus (BRSNW)": {"system": "Brassica napus (BRSNW)", "test": "Post-emergence crop plant compatibility, greenhouse pot test", "conditions": "1.25 g/ha, vs untreated controls", "in_short": "as §2"}, "[6]": {"system": "Matricaria inodora (MATIN)", "test": "Post-emergence herbicidal action, greenhouse pot test (also comparative test C)", "in_short": "(§3)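 Greenhouse pot plants in sandy loam were sprayed post-emergence at the one-leaf stage (2–3 weeks after sowing) with WP or EC formulations plus 0.5% additive at 600 l/ha water. Activity was rated visually after about 3 weeks versus untreated controls (100% = dead, 0% = like control); rates were 20 g/ha or less, and 5 g/ha or less in the comparative test.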"}, "[7]": {"system": "Alopecurus myosuroides (ALOMY)", "test": "Post-emergence herbicidal action, greenhouse pot test (also comparative test C)", "conditions": "rated visually after about 3 weeks vs untreated controls, 100% = plants have died", "in_short": "as §3"}, "[8]": {"system": "Echinochloa crus-galli (ECHCG)", "test": "Post-emergence herbicidal action, greenhouse pot test (also comparative test C)", "in_short": "as §3"}, "Setaria viridis (SETVI)": {"system": "Setaria viridis (SETVI)", "test": "Post-emergence herbicidal action, greenhouse pot test (also comparative test C)", "in_short": "as §3"}}, "data": [{"smiles": "Cn1c(C(F)(F)F)cc(=O)n(-c2cc(Sc3ccccc3OCC(=O)OCC3CCCO3)c(Cl)cc2F)c1=O", "note": "(racemic) [I.1-71]", "values": [{"measurement": "Post-emergence action against POLCO in %", "setting": "[1]; dosage 1.25 g/ha", "result": 100, "unit": "%"}, {"measurement": "Post-emergence action against POLCO in %", "setting": "[1]; dosage 5 g/ha", "result": 100, "unit": "%"}, {"measurement": "Post-emergence action against POLCO in %", "setting": "[1]; dosage 20 g/ha", "result": 100, "unit": "%"}, {"measurement": "Post-emergence action against VIOTR", "setting": "Viola tricolor (VIOTR); 1.25 g/ha", "result": 100, "unit": "%"}, {"measurement": "Post-emergence action against VIOTR", "setting": "Viola tricolor (VIOTR); 5 g/ha", "result": 100, "unit": "%"}, {"measurement": "Post-emergence action against VIOTR", "setting": "Viola tricolor (VIOTR); 20 g/ha", "result": 100, "unit": "%"}, {"measurement": "Post-emergence action at 1.25 g/ha against AMARE in %", "setting": "[2]; 1.25 g/ha", "result": 100, "unit": "%"}, {"measurement": "Post-emergence action at 5 g/ha against AMARE in %", "setting": "[2]; 5 g/ha", "result": 100, "unit": "%"}, {"measurement": "Post-emergence action at 20 g/ha against AMARE in %", "setting": "[2]; 20 g/ha", "result": 100, "unit": "%"}, {"measurement": "Post-emergence action at 1.25 g/ha against ABUTH in %", "setting": "[3]; 1.25 g/ha", "result": 100, "unit": "%"}, {"measurement": "Post-emergence action at 5 g/ha against ABUTH in %", "setting": "[3]; 5 g/ha", "result": 100, "unit": "%"}, {"measurement": "Post-emergence action at 20 g/ha against ABUTH in %", "setting": "[3]; 20 g/ha", "result": 100, "unit": "%"}, {"measurement": "Post-emergence action against VERPE", "setting": "Veronica persica (VERPE); 1.25 g/ha", "result": 100, "unit": "%"}, {"measurement": "Post-emergence action against VERPE", "setting": "Veronica persica (VERPE); 5 g/ha", "result": 100, "unit": "%"}, {"measurement": "Post-emergence action against VERPE", "setting": "Veronica persica (VERPE); 20 g/ha", "result": 100, "unit": "%"}, {"measurement": "Post-emergence action at 5 g/ha against HORMU in %", "setting": "Hordeum murinum (HORMU); 5 g/ha", "result": 80, "unit": "%"}, {"measurement": "Post-emergence action at 20 g/ha against HORMU in %", "setting": "Hordeum murinum (HORMU); 20 g/ha", "result": 90, "unit": "%"}, {"measurement": "Post-emergence action against STEME", "setting": "Stellaria media (STEME); 1.25 g/ha", "result": 90, "unit": "%"}, {"measurement": "Post-emergence action against STEME", "setting": "Stellaria media (STEME); 5 g/ha", "result": 100, "unit": "%"}, {"measurement": "Post-emergence action against STEME", "setting": "Stellaria media (STEME); 20 g/ha", "result": 100, "unit": "%"}, {"measurement": "Post-emergence action against PHBPU in %", "setting": "[4]; dosage 1.25 g/ha", "result": 100, "unit": "%"}, {"measurement": "Post-emergence action against PHBPU in %", "setting": "[4]; dosage 5 g/ha", "result": 100, "unit": "%"}, {"measurement": "Post-emergence action against PHBPU in %", "setting": "[4]; dosage 20 g/ha", "result": 100, "unit": "%"}, {"measurement": "Post-emergence action at 20 g/ha against AVEFA in %", "setting": "Avena fatua (AVEFA)", "result": 80, "unit": "%"}, {"measurement": "Post-emergence action against ZEAMX (crop plant compatibility)", "setting": "Zea mays (ZEAMX)", "result": 20, "unit": "%"}, {"measurement": "Post-emergence action against TRZAS (crop plant compatibility)", "setting": "[5]; 1.25 g/ha", "result": 10, "unit": "%"}, {"measurement": "Post-emergence action against TRZAS (crop plant compatibility)", "setting": "[5]; 5 g/ha", "result": 20, "unit": "%"}, {"measurement": "Post-emergence action against BRSNW (crop plant compatibility)", "setting": "Brassica napus (BRSNW)", "result": 20, "unit": "%"}, {"measurement": "Post-emergence action against MATIN in %", "setting": "[6]; dosage 1.25 g/ha", "result": 80, "unit": "%"}, {"measurement": "Post-emergence action against MATIN in %", "setting": "[6]; dosage 5 g/ha", "result": 90, "unit": "%"}, {"measurement": "Post-emergence action against MATIN in %", "setting": "[6]; dosage 20 g/ha", "result": 100, "unit": "%"}, {"measurement": "Post-emergence action at 5 g/ha against ALOMY in %", "setting": "[7]; 5 g/ha", "result": 80, "unit": "%"}, {"measurement": "Post-emergence action at 20 g/ha against ALOMY in %", "setting": "[7]; 20 g/ha", "result": 90, "unit": "%"}, {"measurement": "Post-emergence action at 1.25 g/ha against ECHCG in %", "setting": "[8]; 1.25 g/ha, rated visually after about 3 weeks vs untreated controls, 100% = plants have died", "result": 100, "unit": "%"}, {"measurement": "Post-emergence action against ECHCG in %", "setting": "[8]; dosage 20 g/ha", "result": 100, "unit": "%"}, {"measurement": "Post-emergence action against SETVI", "setting": "Setaria viridis (SETVI); 20 g/ha", "result": 100, "unit": "%"}, {"measurement": "Post-emergence action against SETVI in %", "setting": "Setaria viridis (SETVI); dosage 1.25 g/ha", "result": 100, "unit": "%"}, {"measurement": "Post-emergence action against SETVI in %", "setting": "Setaria viridis (SETVI); dosage 5 g/ha", "result": 100, "unit": "%"}]}]}
